Columns and labels:
[1] = target: T1, P2Y purinoceptor 12 (Homo sapiens, UniProt Q9H244); test: Displacement of [3H]-2-Mes-ADP from human P2Y12 receptor
[2] = Terminal half life in beagle dog at 10 mg/kg, po administered via oral gavage by LC/MS analysis; type: ADME, organism-based, Canis lupus familiaris; details: in vivo, read-out: beta t1/2 (converted)
[3] = Clearance in rat; type: ADME, organism-based; details: in vivo
[4] = target: T1, P2Y purinoceptor 12; test: Antagonist activity at P2Y12 receptor (unknown origin) by GTPgammaS binding assay; type: functional
[5] = Oral bioavailability in rat; type: ADME, organism-based; details: in vivo
[6] = target: T1, P2Y purinoceptor 12; test: Binding affinity to P2Y12 receptor (unknown origin)
[7] = target: T1, P2Y purinoceptor 12; test: Displacement of [3H]-2-Mes-ADP from human P2Y12 receptor in platelets by scintillation counter
[8] = target: T1, P2Y purinoceptor 12; test: Antagonist activity at P2Y12 receptor (unknown origin)
[9] = Cmax in beagle dog at 10 mg/kg, po administered via oral gavage by LC/MS analysis; type: ADME, organism-based, Canis lupus familiaris; details: in vivo

T1 sequence (Q9H244 whole entry): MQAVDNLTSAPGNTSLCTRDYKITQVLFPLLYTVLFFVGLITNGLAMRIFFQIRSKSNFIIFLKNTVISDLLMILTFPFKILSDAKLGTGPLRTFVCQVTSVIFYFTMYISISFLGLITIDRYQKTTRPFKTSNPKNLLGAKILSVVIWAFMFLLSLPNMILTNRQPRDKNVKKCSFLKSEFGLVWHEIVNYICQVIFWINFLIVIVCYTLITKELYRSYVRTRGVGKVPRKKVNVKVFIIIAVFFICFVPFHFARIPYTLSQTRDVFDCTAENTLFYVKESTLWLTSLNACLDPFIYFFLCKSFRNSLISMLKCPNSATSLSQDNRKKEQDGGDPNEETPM

CCOC(=O)N1CCN(C(=O)[C@H](CCC(=O)O)NC(=O)c2cc(OC(C)(C)C(=O)O)c3ccc(C)cc3n2)CC1
IC50 [1]: 5.3 nM
half-life [2]: 7 h

CCOC(=O)c1cc(C#N)c(N2CCN(C(=O)NS(=O)(=O)c3ccc(Cl)s3)CC2)nc1C
clearance [3]: 16 mL/min/kg
IC50 [4]: 70 nM
bioavailability [5]: 15%
IC50 [6]: 40 nM

CCOC(=O)c1cc(C#N)c(N2CC(C(=O)NS(=O)(=O)c3ccc(Cl)s3)C2)nc1C
clearance [3]: 3 mL/min/kg
IC50 [6]: 60 nM

CNc1cc2[nH]c(=O)n(-c3ccc(NC(=O)NS(=O)(=O)c4ccc(Cl)s4)cc3)c(=O)c2cc1F [ELINOGREL]
IC50 [7]: < 10 nM

CCCSc1nc(N[C@@H]2C[C@H]2c2ccc(F)c(F)c2)c2nnn([C@@H]3C[C@H](OCCO)[C@@H](O)[C@H]3O)c2n1 [TICAGRELOR]
IC50 [8]: 5.01 nM

CCc1cnc(-c2cc(C#N)c(N3CC(C(=O)NS(=O)(=O)c4ccc(Cl)s4)C3)nc2C)o1
clearance [3]: 16 mL/min/kg
IC50 [4]: 22 nM
IC50 [6]: 440 nM

CCOC(=O)N1CCN(C(=O)[C@H](CCC(=O)O)NC(=O)c2cc(OC(C)(C)C(=O)OCC)c3ccc(C)cc3n2)CC1
IC50 [1]: 29 nM
Cmax [9]: 14 µM
half-life [2]: 0.2 h

Source: ChEMBL document CHEMBL3797132, “State of affairs: Design and structure-activity relationships of reversible P2Y12 receptor antagonists” (Bioorg Med Chem Lett, 2016)
